Tested on: phospho-STAT3 (Tyr705)
Test: Western blot of phospho-STAT3 in glomeruli / kidney cortex of NTS-challenged mice
Format: in vivo
Settings: Stattic 25 mg/kg i.p. every other day, started with NTS; 129S2 mice; after 10 days of RPGN; vs vehicle
Protocol: Podocyte-specific disruption of Stat3 mice were generated by crossing podocin-Cre positive mice (63) with Stat3 floxed mice (64) on C57BL6/J background. Their age-matched littermates with no deletion of Stat3 in any cells are considered as controls. […] Stattic (25 mg/kg) was administered in i.p. way every other day for 10 days. 10 weeks old 129S2/SvPasCr male mice were randomly treated with Stattic and were compared to vehicle-treated (DMSO) littermates.
The glomerulonephritis was induced on male mice (10-12 weeks of age) by intravenous injection of 15 μL of sheep anti-glomerular basement membrane (GBM) nephrotoxic serum (NTS), which was diluted with 85 μL of sterile phosphate buffer solution. Serum injections were repeated twice (on days 2 and 3) at 6 μL/g of body weight and 7 μL/g respectively.
Mouse kidneys were extracted, minced, and digested in 2 mg/mL collagenase I solution (Gibco) in RPMI 1640 (Invitrogen) at 37° C. for 3 minutes, then filtered through a 70-μm cell strainer and one more through a 40-μm cell strainer. […] Podocyte outgrowth area was quantified at day 4 using ImageJ software.
After extraction from glomeruli or podocytes with lysis buffer, proteins were quantified by BCA protein assay kit (iNtRON Biotechnology). […] Protein loading was monitored by using the rat anti-tubulin antibody (Abeam). […] Densitometric analysis with ImageJ software was used for quantification.

## O=[N+]([O-])c1ccc2c(c1)S(=O)(=O)C=C2 [Stattic]
  STAT3 (Tyr705) phosphorylation in glomeruli: significantly reduced

Reference: patent US10344279B2, “Methods for the prevention and the treatment of extracapillary glomerulonephritis” (INSERM (Institut National de la Sante et de la Recherche …, priority 2014, dated 2019)
